Reference: paper PMC7933930, “Development of a small molecule that corrects misfolding and increases secretion of Z α1‐antitrypsin” (EMBO Molecular Medicine, 2021)

Key:
Serotonin 5HT2A = Serotonin 5HT2A (Homo sapiens, UniProt P28223); assay: Off‐target panel: Serotonin 5HT2A (DRX); format: cell-based
Protocol: (§1) GSK716 selectivity and PK properties were profiled in order to investigate the suitability of GSK716 for progression into in vivo studies and the potential for taking it forward as a clinical candidate for testing in humans. Since GSK716 results in loss of inhibitory activity of α1‐antitrypsin, the effect of the compound was assessed on other closely related serpins. […] Furthermore, there were no off‐target effects in a panel of assays considered predictive of known safety liabilities that precluded further development of GSK716 (Table EV1).

α1‐antitrypsin = assay: SYPRO Orange thermal shift assay; format: biochemical, human; conditions: 50μM GSK716
Source text: Polymerisation of α1‐antitrypsin involves transition through a transient intermediate state known as M*, that is readily populated by the Z variant (Dafforn et al, 1999; Knaupp et al, 2010). The M* conformational ensemble appears to be a distinct species between the native state conformation and that of the final polymer. One of the hallmarks of M* is its recognition by environment‐sensitive fluorescent reporter dyes. Thermal shift assays that make use of the dye SYPRO Orange report the stability of the protein native state against heat‐induced unfolding. […] Native state stability can also be probed by equilibrium unfolding using chemical denaturants, where a peak in bis‐ANS fluorescence corresponds with a maximally populated unfolding intermediate (James & Bottomley, 1998). […] The association of GSK716 induced a marked quenching and blue‐shift of the α1‐antitrypsin intrinsic tryptophan fluorescence spectrum (Fig 4D, inset). The rate of change in fluorescence during association of 10µM GSK716 was proportional to the propensity of α1‐antitrypsin mutants to form polymers in vivo: inert (M), mild (S), moderate (Baghdad) and severe (Z) α1‐antitrypsin (Fig 4D, top and bottom). […]

mouse hepatocytes = assay: Hepatocyte clearance, mouse; format: in vitro ADME
Protocol: Williams E media supplemented with 2 mM L‐glutamine and 25 mM HEPES and test compound (final compound concentration 0.5 µM; final DMSO concentration 0.25% v/v) were preincubated at 37°C prior to the addition of a suspension of cryopreserved pooled hepatocytes (final cell density 0.5 × 10^6 viable cells/ml) to initiate the reaction. The final incubation volume was 500 µl. The reactions were stopped by transferring 50 µl of incubate to 100 µl acetonitrile containing internal standard at the appropriate time points (0, 5, 10, 20, 40 and 60 min, 0, 10, 20, 40, 60 and 120 min or 0, 20, 40, 60, 120 and 240 min). The control (lysed cells or vehicle) was incubated for 60, 120 or 240 min only. The termination plates were centrifuged at 2,500 rpm at 4°C for 30 min to precipitate the protein. Following protein precipitation, the sample supernatants were analysed by LC‐MS/MS. From a plot of loge peak area ratio (compound peak area/internal standard peak area) against time, the gradient of the line was determined and half‐life (t½) and intrinsic clearance (CLint) were calculated.

Vasopressin V1a = Vasopressin V1a (Homo sapiens, UniProt P37288); assay: Off‐target panel: Vasopressin V1a (DRX); format: cell-based; conditions: Antagonist, read-out: Mean (PXC50)
Vasopressin V1a, sequence (P37288 whole entry): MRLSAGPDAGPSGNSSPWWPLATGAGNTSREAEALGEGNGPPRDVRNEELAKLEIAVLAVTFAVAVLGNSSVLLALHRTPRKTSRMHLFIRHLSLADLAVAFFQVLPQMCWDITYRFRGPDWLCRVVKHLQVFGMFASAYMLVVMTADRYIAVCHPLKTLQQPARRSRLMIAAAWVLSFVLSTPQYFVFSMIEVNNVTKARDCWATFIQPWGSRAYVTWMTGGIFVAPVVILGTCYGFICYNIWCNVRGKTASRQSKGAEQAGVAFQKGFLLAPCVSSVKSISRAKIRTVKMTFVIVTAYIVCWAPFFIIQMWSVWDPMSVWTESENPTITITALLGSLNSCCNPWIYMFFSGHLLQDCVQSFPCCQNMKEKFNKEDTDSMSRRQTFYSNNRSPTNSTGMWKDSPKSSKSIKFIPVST
Protocol: as §1

PI3Kg = PI3Kg (Homo sapiens, UniProt P48736); assay: Off‐target panel: PI3Kg; format: biochemical; conditions: Inhibition, read-out: Mean (PXC50)
PI3Kg, sequence (P48736 whole entry): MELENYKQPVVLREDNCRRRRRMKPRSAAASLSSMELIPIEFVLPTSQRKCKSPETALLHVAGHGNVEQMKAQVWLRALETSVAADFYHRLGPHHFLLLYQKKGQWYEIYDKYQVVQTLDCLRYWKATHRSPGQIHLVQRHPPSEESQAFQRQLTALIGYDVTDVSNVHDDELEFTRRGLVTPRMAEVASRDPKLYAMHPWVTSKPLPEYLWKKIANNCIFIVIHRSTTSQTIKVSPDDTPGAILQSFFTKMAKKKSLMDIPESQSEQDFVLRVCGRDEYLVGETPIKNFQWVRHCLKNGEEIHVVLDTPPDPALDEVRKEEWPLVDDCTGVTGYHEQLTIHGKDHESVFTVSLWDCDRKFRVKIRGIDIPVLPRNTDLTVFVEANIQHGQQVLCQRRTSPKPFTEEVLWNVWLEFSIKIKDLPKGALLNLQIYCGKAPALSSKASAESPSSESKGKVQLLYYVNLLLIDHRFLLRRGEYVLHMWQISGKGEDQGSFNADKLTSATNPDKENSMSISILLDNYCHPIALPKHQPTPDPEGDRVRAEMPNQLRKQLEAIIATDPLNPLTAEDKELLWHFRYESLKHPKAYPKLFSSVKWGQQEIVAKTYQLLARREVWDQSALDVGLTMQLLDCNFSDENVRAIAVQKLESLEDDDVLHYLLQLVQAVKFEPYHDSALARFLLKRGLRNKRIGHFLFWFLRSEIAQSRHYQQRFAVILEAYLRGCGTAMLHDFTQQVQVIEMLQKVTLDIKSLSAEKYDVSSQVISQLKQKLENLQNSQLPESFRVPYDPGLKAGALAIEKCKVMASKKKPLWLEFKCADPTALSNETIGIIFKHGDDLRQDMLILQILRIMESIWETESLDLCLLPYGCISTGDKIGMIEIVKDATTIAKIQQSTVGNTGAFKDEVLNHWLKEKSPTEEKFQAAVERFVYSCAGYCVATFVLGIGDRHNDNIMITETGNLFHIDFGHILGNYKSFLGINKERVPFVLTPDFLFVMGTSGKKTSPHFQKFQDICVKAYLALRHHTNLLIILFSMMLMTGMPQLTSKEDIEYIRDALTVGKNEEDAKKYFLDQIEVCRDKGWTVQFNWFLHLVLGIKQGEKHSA
Protocol: as §1

Cannabinoid CB2 = Cannabinoid CB2 (Homo sapiens, UniProt P34972); assay: Off‐target panel: Cannabinoid CB2; format: cell-based
Cannabinoid CB2, sequence (P34972 whole entry): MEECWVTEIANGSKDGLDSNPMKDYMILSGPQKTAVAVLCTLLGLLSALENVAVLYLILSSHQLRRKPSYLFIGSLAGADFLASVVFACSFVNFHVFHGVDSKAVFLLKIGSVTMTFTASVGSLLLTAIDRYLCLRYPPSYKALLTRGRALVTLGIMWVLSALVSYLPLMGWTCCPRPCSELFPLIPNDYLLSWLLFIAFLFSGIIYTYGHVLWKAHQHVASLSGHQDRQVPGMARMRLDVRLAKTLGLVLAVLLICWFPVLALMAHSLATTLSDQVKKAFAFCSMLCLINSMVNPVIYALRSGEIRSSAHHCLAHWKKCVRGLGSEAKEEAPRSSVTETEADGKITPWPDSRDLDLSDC
Protocol: as §1

serum albumin = assay: Circulating serum albumin in Z α1‐antitrypsin transgenic mice; format: in vivo, mouse; conditions: after 5 days of dosing
Protocol: A significant fraction of the total Z α1‐antitrypsin in the circulation is in the polymeric conformation (Tan et al, 2014). There are no antibodies that are specific for monomeric Z α1‐antitrypsin and so to directly determine its concentration, a deconvolution method was developed based on immunoassays with antibodies for either total or polymeric α1‐antitrypsin, and calibration curves with purified monomeric and polymeric Z α1‐antitrypsin. Monomeric Z α1‐antitrypsin was measured in plasma samples following 6 days of dosing, and levels were normalised to each animals’ pre‐dose control levels to account for the natural variation of Z α1‐antitrypsin between animals. […] Total drug levels and changes in Z α1‐antitrypsin following 3 days of dosing were indistinguishable from those following 6 days of dosing. There was no effect on circulating serum albumin after 5 days of dosing which provides evidence that GSK716 is specific for Z α1‐antitrypsin. Moreover, the effects are not mediated by metabolites of GSK716 as the major metabolites have much reduced or no binding to α1‐antitrypsin.

Serotonin 5HT2A, sequence (P28223 whole entry): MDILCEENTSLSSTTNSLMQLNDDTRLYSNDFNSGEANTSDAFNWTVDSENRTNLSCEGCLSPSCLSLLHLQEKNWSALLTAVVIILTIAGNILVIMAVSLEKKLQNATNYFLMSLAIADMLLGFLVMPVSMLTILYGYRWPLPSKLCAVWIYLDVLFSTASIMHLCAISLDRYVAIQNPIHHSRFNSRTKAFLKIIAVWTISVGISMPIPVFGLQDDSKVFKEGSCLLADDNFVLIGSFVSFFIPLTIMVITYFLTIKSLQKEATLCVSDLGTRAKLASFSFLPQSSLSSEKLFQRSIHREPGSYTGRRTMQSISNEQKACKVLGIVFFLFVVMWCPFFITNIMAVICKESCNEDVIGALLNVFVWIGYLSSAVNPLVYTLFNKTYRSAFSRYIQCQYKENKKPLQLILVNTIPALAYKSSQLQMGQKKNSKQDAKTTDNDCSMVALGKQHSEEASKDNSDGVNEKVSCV

CCC[C@@H](NC(=O)c1cccc2c1CC(=O)N2)[C@@H](O)c1cccc(F)c1C [GSK716]
EC50 (Serotonin 5HT2A): > 100 µM
IC50 (Serotonin 5HT2A): 63.1 µM
transition midpoint temperature (α1‐antitrypsin): marked increase
metabolic clearance in mouse hepatocytes (mouse hepatocytes): 4.56 ml/min/g tissue
IC50 (Vasopressin V1a): > 50.1 µM
IC50 (PI3Kg): > 31.6 µM
EC50 (Cannabinoid CB2): > 100 µM
effect on circulating serum albumin (serum albumin): no effect
